Reference: ChEMBL document CHEMBL5120898, “Bathiapeptides: Polythiazole-Containing Peptides from a Marine Biofilm-Derived Bacillus sp” (J Nat Prod, 2022)
pIC50: −log10 of the molar value.

Key:
Format in all cases: functional, cell-based
HepG2 = assay: Cytotoxicity against human HepG2 cells assessed as inhibition of cell growth incubated for 24 hrs by MTT assay; conditions: HepG2, 24 h
MCF7 = assay: Cytotoxicity against human MCF7 cells assessed as inhibition of cell growth incubated for 24 hrs by MTT assay; conditions: MCF7, 24 h
MGC-803 = assay: Cytotoxicity against human MGC-803 cells assessed as inhibition of cell growth incubated for 24 hrs by MTT assay; conditions: MGC-803, 24 h
HeLa = assay: Cytotoxicity against human HeLa cells assessed as inhibition of cell growth incubated for 24 hrs by MTT assay

Row | SMILES | pIC50 (HepG2) | pIC50 (MCF7) | pIC50 (MGC-803) | pIC50 (HeLa)
1 | CC[C@H](C)[C@@H]1NC(=O)[C@@H](Cc2ccccc2)NC(=O)c2csc(n2)-c2csc(n2)-c2csc(n2)CNC1=O | 5.35 | 5.62 | 5.24 | 5.34
2 | CC[C@H](C)[C@@H]1NC(=O)[C@@H](Cc2ccccc2)NC(=O)c2csc(n2)-c2csc(n2)[C@@H](C)NC1=O | < 4.30 | < 4.30 | < 4.30 | < 4.30
3 | CC[C@H](C)[C@@H]1NC(=O)[C@@H](Cc2ccccc2)NC(=O)c2csc(n2)-c2csc(n2)-c2csc(n2)[C@@H](C)NC1=O | 5.39 | 6.30 | 6.10 | 5.82
4 | CC(C)[C@@H]1NC(=O)[C@@H](Cc2ccccc2)NC(=O)c2csc(n2)-c2csc(n2)-c2csc(n2)[C@@H](C)NC1=O | 5.30 | 5.52 | 5.54 | 5.10
5 | CC[C@H](C)[C@H](NC(=O)[C@@H](Cc1ccccc1)NC(C)=O)C(=O)N[C@H](C)c1nc(-c2nc(-c3nc(C(=O)O)cs3)cs2)cs1 | < 4.30 | < 4.30 | < 4.30 | < 4.30
6 | CC[C@H](C)[C@@H]1NC(=O)[C@@H](Cc2ccccc2)NC(=O)c2csc(n2)-c2csc(n2)-c2csc(n2)[C@H](C)NC1=O | 4.88 | 5.00 | 4.79 | 4.53
7 | CC[C@H](C)[C@@H]1NC(=O)[C@@H](Cc2ccccc2)NC(=O)c2csc(n2)-c2csc(n2)-c2csc(n2)[C@@H](CO)NC1=O | < 4.30 | 4.91 | 4.80 | 4.79
8 | CC[C@H](C)[C@H](NC(=O)[C@H](N)Cc1ccccc1)C(=O)N[C@H](C)c1nc(-c2nc(-c3nc(C(=O)O)cs3)cs2)cs1 | < 4.30 | < 4.30 | < 4.30 | < 4.30
